ChEMBL document CHEMBL5257080, “Optimization of physicochemical properties of pyrrolidine GPR40 AgoPAMs results in a differentiated profile with improved pharmacokinetics and reduced off-target activities” (Bioorg Med Chem, 2023)
Converted amounts (≈) assume the structure as drawn. The source made the active and inactive calls. No cut-off for these calls is given here.

What was measured:
[1] = Solubility of the compound in FeSSIF at pH 5; assay type: ADME
[2] = AUC (0-7hrs) in mouse at 1 mg/kg; assay type: ADME, organism-based; parameters: dose 1 mg/kg; details: in vivo
[3] = Volume of distribution at steady state in mouse at 3 mg/kg, iv; assay type: ADME, organism-based; details: in vivo, read-out: Vdss
[4] = Solubility in phosphate buffer at pH 6.5; assay type: physicochemical
[5] = Toxicity in rat assessed as NOAEL by measuring AUC (0 to 24 hrs) measured for 28 days; details: in vivo, time 28 day
[6] = Toxicity in rat assessed as vacuolation in pancrease at 100 mg/kg measured for 28 days; assay type: organism-based; details: in vivo, time 28 day
Cytochrome P450 2C9 = Cytochrome P450 2C9 (Homo sapiens, UniProt P11712); assay: Inhibition of CYP2C9 in human liver microsomes; assay type: ADME, Microsome
[7] = target: T1, Free fatty acid receptor 1 (Homo sapiens, UniProt O14842); assay: Positive allosteric modulation of human GPR40 by calcium based FLIPR analysis
Cytochrome P450 3A4 = Cytochrome P450 3A4 (Homo sapiens, UniProt P08684); assay: Inhibition of CYP3A4 in human liver microsomes; assay type: ADME, Microsome
[8] = Metabolic stability in human liver microsome assessed as parent compound remaining after 10 mins; assay type: ADME; details: liver microsomes, read-out: Stability
[9] = Total AUC in mouse at 1 mg/kg, po; assay type: ADME, organism-based; parameters: dose 1 mg/kg, route po; details: in vivo
[10] = Cmax in rat at 12 mg/kg qd; assay type: ADME, organism-based; parameters: dose 12 mg/kg; details: in vivo
[11] = Tmax in rat at 300 mg/kg qd; assay type: ADME, organism-based; details: in vivo
Cytochrome P450 2B6 = target: T2, Cytochrome P450 2B6 (Homo sapiens, UniProt P20813); assay: Inhibition of CYP2B6 in human liver microsomes; assay type: ADME, Microsome
T2 sequence (P20813 whole entry): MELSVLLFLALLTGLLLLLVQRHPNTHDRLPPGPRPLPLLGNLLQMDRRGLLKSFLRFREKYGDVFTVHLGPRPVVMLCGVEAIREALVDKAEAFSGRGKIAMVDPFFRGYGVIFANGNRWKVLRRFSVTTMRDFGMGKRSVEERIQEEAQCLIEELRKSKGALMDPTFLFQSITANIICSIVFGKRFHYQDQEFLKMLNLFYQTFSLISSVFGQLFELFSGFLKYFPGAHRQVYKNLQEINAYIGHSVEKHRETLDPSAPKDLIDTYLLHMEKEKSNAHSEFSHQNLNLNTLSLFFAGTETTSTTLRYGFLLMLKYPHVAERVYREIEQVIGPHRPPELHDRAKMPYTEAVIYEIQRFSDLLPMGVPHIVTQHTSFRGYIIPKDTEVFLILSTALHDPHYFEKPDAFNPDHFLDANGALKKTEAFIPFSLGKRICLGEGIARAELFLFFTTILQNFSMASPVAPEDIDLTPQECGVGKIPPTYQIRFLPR

[12] = Lipophilicity, logD of compound; assay type: physicochemical; details: octanol/water
[13] = Tmax in rat at 12 mg/kg qd; assay type: ADME, organism-based; details: in vivo
[14] = AUC (0 to 24 hrs) in rat at 100 mg/kg, po qd; assay type: ADME, organism-based; parameters: dose 100 mg/kg, route po; details: in vivo
[15] = Clearance in rat at 3 mg/kg, iv; assay type: ADME, organism-based; details: in vivo
[16] = Permeability of compound across apical to basolateral side in dog MDCK cells; assay type: ADME, cell-based, Canis lupus familiaris; details: read-out: permeability
[17] = Tmax in rat at 60 mg/kg qd; assay type: ADME, organism-based; details: in vivo
[18] = Half life in rat at 3 mg/kg, iv; assay type: ADME, organism-based; details: in vivo
[19] = AUC (0 to 24 hrs) in rat at 12 mg/kg qd; assay type: ADME, organism-based; parameters: dose 12 mg/kg; details: in vivo
[20] = Half life in mouse at 3 mg/kg, iv; assay type: ADME, organism-based; details: in vivo
[21] = AUC (0 to 24 hrs) in rat at 300 mg/kg qd; assay type: ADME, organism-based; parameters: dose 300 mg/kg; details: in vivo
[22] = Toxicity in rat assessed as reduction in cell number at 100 mg/kg measured for 28 days; assay type: organism-based; details: in vivo, time 28 day
[23] = Plasma protein binding in mouse assessed as fraction unbound; assay type: ADME, cell-free
Cytochrome P450 2C8 = target: T3, Cytochrome P450 2C8 (Homo sapiens, UniProt P10632); assay: Inhibition of CYP2C8 in human liver microsomes; assay type: ADME, Microsome
T3 sequence (P10632 whole entry): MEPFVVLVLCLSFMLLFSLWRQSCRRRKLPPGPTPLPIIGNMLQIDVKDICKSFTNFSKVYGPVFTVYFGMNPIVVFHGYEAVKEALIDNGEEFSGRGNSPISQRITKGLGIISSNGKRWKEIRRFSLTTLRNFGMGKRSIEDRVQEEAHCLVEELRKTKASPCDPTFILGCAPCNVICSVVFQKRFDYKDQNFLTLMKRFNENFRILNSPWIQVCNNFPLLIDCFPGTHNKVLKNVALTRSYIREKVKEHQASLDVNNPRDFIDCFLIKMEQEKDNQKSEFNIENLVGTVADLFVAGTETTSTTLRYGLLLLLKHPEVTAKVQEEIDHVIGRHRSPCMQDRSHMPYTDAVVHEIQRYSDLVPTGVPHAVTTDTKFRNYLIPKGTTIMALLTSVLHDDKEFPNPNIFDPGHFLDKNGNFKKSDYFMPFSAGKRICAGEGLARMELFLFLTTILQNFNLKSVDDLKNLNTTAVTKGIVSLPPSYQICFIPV

[24] = Cmax in mouse at 1 mg/kg, po; assay type: ADME, organism-based; parameters: dose 1 mg/kg, route po; details: in vivo
Mus musculus [25] = species: Mus musculus; assay: Anti-hyperglycemic activity in GPR40 knockout mouse assessed as reduction in plasma glucose level by OGTT analysis; assay type: functional, organism-based
[26] = Oral bioavailability in rat at 1 mg/kg; assay type: ADME, organism-based; details: in vivo
[27] = Toxicity in rat assessed as NOAEL at 100 mg/kg measured for 28 days; assay type: organism-based; details: in vivo, time 28 day
[28] = Metabolic stability in mouse liver microsome assessed as parent compound remaining after 10 mins; assay type: ADME; details: liver microsomes, read-out: Stability
[29] = Total AUC in rat at 1 mg/kg, po; assay type: ADME, organism-based; parameters: dose 1 mg/kg, route po; details: in vivo
Rattus norvegicus [30] = assay: Anti-hyperglycemic activity against Sprague-Dawley rat assessed as reduction in plasma glucose AUC at 0.3 mg/kg, po measured for 20 to 120 mins in presence of BMS-538305 by OGTT analysis; assay type: functional; parameters: scale not given: the % may be the effect or the level left; details: time 20-120 min
[31] = Oral bioavailability in mouse at 1 mg/kg; assay type: ADME, organism-based; details: in vivo
[32] = target: Free fatty acid receptor 1 (Mus musculus, UniProt Q76JU9); assay: Positive allosteric modulation of mouse GPR40
[33] = Cmax in rat at 300 mg/kg qd; assay type: ADME, organism-based; parameters: dose 300 mg/kg; details: in vivo
[34] = Cmax in rat at 1 mg/kg, po; assay type: ADME, organism-based; parameters: dose 1 mg/kg, route po; details: in vivo
[35] = Volume of distribution at steady state in rat at 3 mg/kg, iv; assay type: ADME, organism-based; details: in vivo, read-out: Vdss
Rattus norvegicus [36] = assay: Anti-hyperglycemic activity against Sprague-Dawley rat assessed as reduction in plasma glucose AUC at 0.3 mg/kg, po measured at 3 hrs in presence of BMS-538305 by OGTT analysis; assay type: functional; parameters: scale not given: the % may be the effect or the level left
[37] = Plasma protein binding in human assessed as fraction unbound; assay type: ADME, cell-free
Cytochrome P450 2C19 = Cytochrome P450 2C19 (Homo sapiens, UniProt P33261); assay: Inhibition of CYP2C19 in human liver microsomes; assay type: ADME, Microsome
Mus musculus [38] = species: Mus musculus; assay: Anti-hyperglycemic activity in wild type mouse assessed as reduction in plasma glucose level by OGTT analysis; assay type: functional, organism-based
[39] = Solubility of the compound in FeSSIF at pH 6.5; assay type: ADME
Rattus norvegicus [40] = assay: Hyperglycemic activity in Sprague-Dawley rat assessed as effect on blood glucose level at 30 to 100 mg/kg, qd by glucometer; assay type: functional, organism-based; details: dose 30-100 mg/kg
[41] = Cmax in rat at 60 mg/kg qd; assay type: ADME, organism-based; parameters: dose 60 mg/kg; details: in vivo
[42] = Cmax in mouse at 1 mg/kg; assay type: ADME, organism-based; parameters: dose 1 mg/kg; details: in vivo
[43] = Metabolic stability in rat liver microsome assessed as parent compound remaining after 10 mins; assay type: ADME; details: liver microsomes, read-out: Stability
[44] = AUC (0 to 24 hrs) in rat at 60 mg/kg qd; assay type: ADME, organism-based; parameters: dose 60 mg/kg; details: in vivo
[45] = Toxicity in rat assessed as reduction in cell size at 100 mg/kg measured for 28 days; assay type: organism-based; details: in vivo, time 28 day
[46] = target: T1, Free fatty acid receptor 1; assay: Positive allosteric modulation of human GPR40 expressed in HEK293 cells assessed as cAMP accumulation; assay type: cell-based
Rattus norvegicus [47] = assay: Anti-hyperglycemic activity against Sprague-Dawley rat assessed as reduction in plasma glucose AUC at 0.3 mg/kg, po measured for 20 to 120 mins by OGTT analysis; assay type: functional, organism-based; details: time lower 20.0 min, time upper […]
[48] = Clearance in mouse at 3 mg/kg, iv; assay type: ADME, organism-based; details: in vivo
Rattus norvegicus [49] = assay: Anti-hyperglycemic activity against Sprague-Dawley rat assessed as reduction in plasma glucose level at 3 mg/kg, po measured for 20 to 120 mins by OGTT analysis; assay type: functional, organism-based; details: time lower 20.0 min, time upper […]
Cytochrome P450 2D6 = Cytochrome P450 2D6 (Homo sapiens, UniProt P10635); assay: Inhibition of CYP2D6 in human liver microsomes; assay type: ADME, Microsome
[50] = Solubility of the compound in FaSSIF at pH 6.5; assay type: ADME

T1 sequence (O14842 whole entry): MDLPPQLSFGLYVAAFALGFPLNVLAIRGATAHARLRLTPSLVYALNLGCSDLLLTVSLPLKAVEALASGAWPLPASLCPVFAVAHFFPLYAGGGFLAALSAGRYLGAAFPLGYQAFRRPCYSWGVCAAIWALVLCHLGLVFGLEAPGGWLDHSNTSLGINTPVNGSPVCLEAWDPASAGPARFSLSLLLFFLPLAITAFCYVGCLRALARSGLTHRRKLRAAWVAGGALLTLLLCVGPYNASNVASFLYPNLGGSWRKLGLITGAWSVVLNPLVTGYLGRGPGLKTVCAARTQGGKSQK
Sequence of Cytochrome P450 3A4 (P08684 whole entry): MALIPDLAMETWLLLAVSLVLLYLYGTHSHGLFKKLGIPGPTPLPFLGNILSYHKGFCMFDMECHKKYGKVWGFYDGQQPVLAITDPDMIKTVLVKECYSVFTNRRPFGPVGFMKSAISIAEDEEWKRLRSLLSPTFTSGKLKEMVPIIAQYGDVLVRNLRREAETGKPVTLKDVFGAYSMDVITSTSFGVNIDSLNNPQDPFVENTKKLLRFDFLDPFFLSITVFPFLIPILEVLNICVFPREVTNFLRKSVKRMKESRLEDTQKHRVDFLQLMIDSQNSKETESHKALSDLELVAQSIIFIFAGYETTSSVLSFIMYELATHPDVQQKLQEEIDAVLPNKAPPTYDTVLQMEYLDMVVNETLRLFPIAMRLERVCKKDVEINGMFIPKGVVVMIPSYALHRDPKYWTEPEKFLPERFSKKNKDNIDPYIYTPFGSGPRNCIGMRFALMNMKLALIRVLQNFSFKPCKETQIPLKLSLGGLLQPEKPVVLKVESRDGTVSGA
Sequence of Cytochrome P450 2D6 (P10635 whole entry): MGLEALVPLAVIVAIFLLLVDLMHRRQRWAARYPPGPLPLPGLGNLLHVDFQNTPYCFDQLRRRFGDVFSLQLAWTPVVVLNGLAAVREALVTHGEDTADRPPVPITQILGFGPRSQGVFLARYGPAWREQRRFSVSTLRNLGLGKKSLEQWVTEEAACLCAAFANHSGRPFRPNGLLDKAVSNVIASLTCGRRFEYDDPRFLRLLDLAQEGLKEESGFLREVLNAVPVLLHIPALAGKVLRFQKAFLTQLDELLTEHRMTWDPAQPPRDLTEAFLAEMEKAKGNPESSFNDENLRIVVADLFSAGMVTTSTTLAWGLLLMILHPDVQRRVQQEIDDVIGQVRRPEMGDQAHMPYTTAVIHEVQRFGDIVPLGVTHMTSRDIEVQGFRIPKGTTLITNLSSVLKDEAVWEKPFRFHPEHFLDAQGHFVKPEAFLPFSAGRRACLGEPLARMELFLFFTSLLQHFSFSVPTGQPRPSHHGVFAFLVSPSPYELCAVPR
Sequence of Cytochrome P450 2C19 (P33261 whole entry): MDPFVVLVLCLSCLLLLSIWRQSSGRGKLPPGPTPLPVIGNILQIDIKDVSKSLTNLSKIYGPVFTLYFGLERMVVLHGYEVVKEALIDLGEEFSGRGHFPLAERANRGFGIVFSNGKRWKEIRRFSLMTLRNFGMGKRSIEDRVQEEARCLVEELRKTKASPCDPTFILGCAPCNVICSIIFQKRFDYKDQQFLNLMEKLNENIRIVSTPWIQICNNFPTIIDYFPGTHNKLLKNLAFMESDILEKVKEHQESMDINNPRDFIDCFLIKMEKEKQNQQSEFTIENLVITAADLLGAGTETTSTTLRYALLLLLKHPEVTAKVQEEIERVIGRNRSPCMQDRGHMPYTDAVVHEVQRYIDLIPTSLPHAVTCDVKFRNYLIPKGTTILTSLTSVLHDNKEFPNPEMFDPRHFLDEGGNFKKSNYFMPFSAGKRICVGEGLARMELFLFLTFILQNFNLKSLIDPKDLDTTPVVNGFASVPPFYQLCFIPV
Sequence of Free fatty acid receptor 1 (Mus musculus, UniProt Q76JU9) (Q76JU9 whole entry): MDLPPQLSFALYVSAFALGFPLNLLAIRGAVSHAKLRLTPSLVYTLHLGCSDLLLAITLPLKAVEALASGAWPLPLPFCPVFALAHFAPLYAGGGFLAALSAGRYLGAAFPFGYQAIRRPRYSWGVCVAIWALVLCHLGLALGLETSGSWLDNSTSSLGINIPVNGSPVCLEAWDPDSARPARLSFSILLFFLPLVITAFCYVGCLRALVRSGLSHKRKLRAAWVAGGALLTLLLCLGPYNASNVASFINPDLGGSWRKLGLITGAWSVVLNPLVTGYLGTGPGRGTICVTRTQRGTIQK
Sequence of Cytochrome P450 2C9 (P11712 whole entry): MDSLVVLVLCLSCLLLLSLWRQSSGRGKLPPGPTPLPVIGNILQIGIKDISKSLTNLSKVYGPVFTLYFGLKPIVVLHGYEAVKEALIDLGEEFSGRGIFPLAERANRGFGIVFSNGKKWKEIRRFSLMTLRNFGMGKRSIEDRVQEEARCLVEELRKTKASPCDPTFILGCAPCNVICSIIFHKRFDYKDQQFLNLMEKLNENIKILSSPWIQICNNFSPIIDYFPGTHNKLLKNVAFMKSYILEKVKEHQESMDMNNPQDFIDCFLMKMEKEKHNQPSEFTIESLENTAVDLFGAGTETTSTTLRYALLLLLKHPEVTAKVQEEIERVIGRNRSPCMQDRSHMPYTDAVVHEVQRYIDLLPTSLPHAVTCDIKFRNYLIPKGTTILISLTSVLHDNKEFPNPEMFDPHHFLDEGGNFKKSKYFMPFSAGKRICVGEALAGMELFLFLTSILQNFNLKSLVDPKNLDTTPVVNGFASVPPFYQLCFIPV

COCCCO[C@H]1CN(c2ccc(O[C@@H]3CCN(c4cc(OC)ncc4Cl)C[C@H]3C)cc2)[C@@H](CC(=O)O)[C@@H]1C
solubility [1]: 383 µg/mL (≈ 681 µM)
AUC(0-t) [2]: 4.4 µM·h
Vd [3]: 1.4 L/kg
solubility [4]: 28 µg/mL (≈ 49.8 µM)
AUC at […] [5]: 53 µM·h
Activity [6]: Toxic
IC50 (Cytochrome P450 2C9): 34 µM
EC50 [7]: 0.049 µM
IC50 (Cytochrome P450 3A4): 40 µM
remaining at 10 min [8]: 100%
AUC [9]: 4.4 µM·h
Cmax [10]: 11 µM
Tmax [11]: 2 h
IC50 (Cytochrome P450 2B6): 29 µM
logD [12]: 1.32
Tmax [13]: 2 h
AUC [14]: 1480 µM·h
clearance [15]: 5.9 mL/min/kg
Papp A→B [16]: 24.3 ×10⁻⁶ cm/s
Tmax [17]: 2 h
half-life [18]: 3.6 h
AUC [19]: 84 µM·h
half-life [20]: 3.4 h
AUC [21]: 3150 µM·h
Activity [22]: Non-Toxic
Fu [23]: 0.9%
IC50 (Cytochrome P450 2C8): 8.3 µM
Cmax [24]: 2.8 µM
Activity (Mus musculus [25]): inactive
bioavailability [26]: 100%
Activity [27]: Non-Toxic
remaining at 10 min [28]: 79%
AUC [29]: 2.2 µM·h
Activity (Rattus norvegicus [30]): 26%
bioavailability [31]: 100%
EC50 [32]: 0.014 µM
Cmax [33]: 151 µM
Cmax [34]: 1.6 µM
Vd [35]: 1.1 L/kg
Activity (Rattus norvegicus [36]): 148%
Fu [37]: < 0.1%
IC50 (Cytochrome P450 2C19): 40 µM
Activity (Mus musculus [38]): Active
solubility [39]: 1300 µg/mL (≈ 2320 µM)
Activity (Rattus norvegicus [40]): inactive
Cmax [41]: 49 µM
Cmax [42]: 2.8 µM
remaining at 10 min [43]: 77%
AUC [44]: 534 µM·h
Activity [45]: Non-Toxic
EC50 [46]: 1.8 µM
Activity (Rattus norvegicus [47]): inactive
clearance [48]: 7.9 mL/min/kg
Activity (Rattus norvegicus [49]): Active
IC50 (Cytochrome P450 2D6): 40 µM
solubility [50]: 239 µg/mL (≈ 425 µM)
